# Assay results published in patent publication US10065927B2, “α-ketoacylic isoniazid compounds, process for producing said compounds, use of the compounds in the treatment of tuberculosis” (priority 2015, dated 2018).
# Entries after “also recorded” stand apart in the source; their conditions may differ. Read-outs that look alike come from different tables or passages of the source.
# What was measured:
# [1] = tested on: Mycobacterium tuberculosis strain H37Rv ATCC 27294; assay: Antimycobacterial evaluation, MIC by microplate Alamar Blue Assay, retested by BACTEC MGIT 960-TB; type: cell-based; conditions: for MIC: M. tuberculosis strain H37Rv ATCC 27294, sensitive to first-choice drugs; for antimycobacterial activity (in words): against M. tuberculosis
# [2] = tested on: J77-4 lineage murine macrophages; type: cell-based; conditions: mouse
# Method: The cytotoxicity evaluation of compound 2 was performed with J77-4 lineage murine macrophages.
# [3] = Mycobacterium tuberculosis, read-out: MIC
# [4] = strains sensitive to first-choice drugs
smiles,measurement,setting,value
"O=C(NNC(=O)c1ccncc1)C(=O)c1ccccc1NC(=O)c1ccccc1 [Compound 4, reference compound]",MIC,[1]; read-out: MIC,8.04 µM
same,antimycobacterial activity (in words),[1],did not show good activity
"CC[C@@H](CO)NCCN[C@@H](CC)CO [Etambutol, ethambutol, reference compound]",MIC,[1]; [3],15.9 µM
"CC(=O)NNC(=O)c1ccncc1 [2-acetylisomide, 2-acetylisoniazide, reference compound]",MIC,[1],Inactive
same,antimycobacterial activity (in words),[1],did not show antimycobacterial activity
NNC(=O)c1ccncc1 [Isoniazid],MIC,[1]; [3],0.73 µM
"CC(=O)Nc1ccccc1C(=O)C(=O)NNC(=O)c1ccncc1 [Compound 2, N-(2-(2-(2-Isonicotinoylhydrazine)-2-Oxoacetyl)Phenyl) Acetamide]",Cell Viability (%),[2]; 1 nM,96.8%
same,Cell Viability (%),[2]; 10 nM,97.8%
same,Cell Viability (%),[2]; 100 nM,97.9%
same,Cell Viability (%),[2]; 1,97.4%
same,Cell Viability (%),[2]; 10,97.3%
same,Cell Viability (%),[2]; 100,98.2%
same,MIC,[1]; [3],0.37 µM
same,antimycobacterial activity (in words),[1],antimycobacterial activity superior to all the first-choice drugs; also recorded: higher potency than all the first-choice drugs
same,activity relative to pyrazinamide,[1]; [4],almost two thousand and two hundred times more active than pyrazinamide
same,potency relative to ethambutol,[1]; [4],more than forty times more potent than ethambutol
same,potency relative to isoniazid,[1]; [4],twice as potent as isoniazid
same,potency relative to rifampicin,[1]; [4],more than three times more potent than rifampicin
"NC(=O)c1cnccn1 [Pyrazinamide, reference compound]",MIC,[1]; [3],813 µM
